According to ChEMBL document CHEMBL4251579, “Design, synthesis, and biological evaluation of a series of resorcinol-based N-benzyl benzamide derivatives as potent Hsp90 inhibitors” (Eur J Med Chem, 2018):
The source made the active and inactive calls. No cut-off for these calls is given here.

Key:
NCI-H1975 [1] = assay: Induction of apoptosis in human NCI-H1975 cells assessed as increase in Bcl2 expression levels at 0.05 to 1 uM after 24 by Western blot analysis; type: functional, cell-based
NCI-H1975 [2] = assay: Effect on beta-actin protein levels in human NCI-H1975 cells at 0.05 to 1 uM after 24 hrs by Western blot analysis; type: ADME, cell-based; conditions: nci-h1975, 24 h
Mus musculus [3] = assay: (§1) In vivo inhibition of HSP90 in NOD-scid IL2Rgamma null mouse tumor xenografted with human NCI-H1975 cells assessed as decrease in Met protein expression at 25 to 50 mg/kg, ip dosed daily for 5 days per week followed by 2 days rest for 3 weeks and measured after 21 days post dose by haematoxylin and eosin staining-based immunohistochemical analysis; type: functional, organism-based
Mus musculus [4] = assay: as §1, with “EGFR” for “Met”; type: functional, organism-based
[5] = molecular target: T1, Heat shock protein HSP90 (Homo sapiens) (UniProt P07900+P08238); assay: Inhibition of HSP90 in human NCI-H1975 cells assessed as decrease in Met protein expression at 0.05 to 1 uM after 24 hrs by Western blot analysis; type: cell-based
Mus musculus [6] = assay: Toxicity in NOD-scid IL2Rgamma null mouse xenografted with human NCI-H1975 cells assessed as change in body weight at 25 to 50 mg/kg, ip dosed daily for 5 days per week followed by 2 days rest for 3 weeks and measured after 21 days post dose; type: organism-based; conditions: in vivo, 504 h
Cytochrome P450 2C9 = Cytochrome P450 2C9 (Homo sapiens, UniProt P11712); assay: Inhibition of CYP2C9 in human pooled human liver microsomes using tolbutamide as substrate assessed as tolbutamide 4-methylhydroxylation preincubated for 5 mins followed by NADPH addition measured after 15 mins by LC-MS/MS analysis; type: ADME
Cytochrome P450 2C9, sequence (P11712 whole entry): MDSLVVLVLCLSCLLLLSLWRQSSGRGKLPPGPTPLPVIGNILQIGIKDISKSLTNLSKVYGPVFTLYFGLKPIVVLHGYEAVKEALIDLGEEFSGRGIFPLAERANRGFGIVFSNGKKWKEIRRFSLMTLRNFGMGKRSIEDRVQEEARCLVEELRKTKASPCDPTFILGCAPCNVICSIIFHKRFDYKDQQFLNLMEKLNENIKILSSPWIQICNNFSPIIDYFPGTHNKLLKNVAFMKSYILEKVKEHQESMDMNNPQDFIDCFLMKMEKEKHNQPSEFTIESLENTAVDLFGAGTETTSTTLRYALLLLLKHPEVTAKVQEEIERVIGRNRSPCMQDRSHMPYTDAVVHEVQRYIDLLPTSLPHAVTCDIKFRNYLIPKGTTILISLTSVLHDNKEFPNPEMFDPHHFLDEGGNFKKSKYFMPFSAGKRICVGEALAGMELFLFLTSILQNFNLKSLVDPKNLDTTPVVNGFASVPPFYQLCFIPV

[7] = molecular target: T1, Heat shock protein HSP90 (Homo sapiens); assay: Inhibition of HSP90 in human NCI-H1975 cells assessed as decrease in EGFR protein expression at 0.05 to 1 uM after 24 hrs by Western blot analysis; type: cell-based
[8] = molecular target: T2, Heat shock protein HSP 90-alpha (Homo sapiens, UniProt P07900); assay: Binding affinity to N-terminal domain of recombinant full-length HSP90alpha (unknown origin) by surface plasmon resonance assay
NCI-H1975 [9] = assay: Antitumor activity against human NCI-H1975 cells xenografted in NOD-scid IL2Rgamma null mouse assessed as delay in tumor growth at 25 to 50 mg/kg, ip dosed daily for 5 days per week followed by 2 days rest for 3 weeks and measured up to 21 days post dose; type: functional, organism-based
[10] = molecular target: T1, Heat shock protein HSP90 (Homo sapiens); assay: Inhibition of HSP90 in human NCI-H1975 cells assessed as decrease in c-Raf protein expression at 0.05 to 1 uM after 24 hrs by Western blot analysis; type: cell-based
[11] = molecular target: T1, Heat shock protein HSP90 (Homo sapiens); assay: Inhibition of HSP90 in human NCI-H1975 cells assessed as decrease in Akt protein expression at 0.05 to 1 uM after 24 hrs by Western blot analysis; type: cell-based
Mus musculus [12] = assay: as §1, with “Akt” for “Met”; type: functional, organism-based
Cytochrome P450 2D6 = Cytochrome P450 2D6 (Homo sapiens, UniProt P10635); assay: Inhibition of CYP2D6 in human pooled human liver microsomes using dextromethorphan as substrate assessed as dextromethorphan O-demethylation preincubated for 5 mins followed by NADPH addition measured after 15 mins by LC-MS/MS analysis; type: ADME
Cytochrome P450 2D6, sequence (P10635 whole entry): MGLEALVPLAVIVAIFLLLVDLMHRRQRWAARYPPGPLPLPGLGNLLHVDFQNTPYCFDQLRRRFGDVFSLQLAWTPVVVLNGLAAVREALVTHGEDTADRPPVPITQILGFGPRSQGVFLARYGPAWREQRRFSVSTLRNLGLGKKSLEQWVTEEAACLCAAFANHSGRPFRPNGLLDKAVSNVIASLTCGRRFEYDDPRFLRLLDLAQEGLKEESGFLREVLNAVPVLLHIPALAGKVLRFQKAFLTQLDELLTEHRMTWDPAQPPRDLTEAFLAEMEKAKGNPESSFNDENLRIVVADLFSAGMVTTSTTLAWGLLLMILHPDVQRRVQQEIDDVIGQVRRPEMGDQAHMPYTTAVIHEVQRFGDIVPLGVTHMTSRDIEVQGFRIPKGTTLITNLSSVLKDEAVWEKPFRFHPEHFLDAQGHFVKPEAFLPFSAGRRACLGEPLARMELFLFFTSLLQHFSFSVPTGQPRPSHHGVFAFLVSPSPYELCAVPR

Cytochrome P450 2C19 = Cytochrome P450 2C19 (Homo sapiens, UniProt P33261); assay: Inhibition of CYP2C19 in human pooled human liver microsomes using omeprazole as substrate assessed as omepraozle hydroxylation preincubated for 5 mins followed by NADPH addition measured after 15 mins by LC-MS/MS analysis; type: ADME
Cytochrome P450 2C19, sequence (P33261 whole entry): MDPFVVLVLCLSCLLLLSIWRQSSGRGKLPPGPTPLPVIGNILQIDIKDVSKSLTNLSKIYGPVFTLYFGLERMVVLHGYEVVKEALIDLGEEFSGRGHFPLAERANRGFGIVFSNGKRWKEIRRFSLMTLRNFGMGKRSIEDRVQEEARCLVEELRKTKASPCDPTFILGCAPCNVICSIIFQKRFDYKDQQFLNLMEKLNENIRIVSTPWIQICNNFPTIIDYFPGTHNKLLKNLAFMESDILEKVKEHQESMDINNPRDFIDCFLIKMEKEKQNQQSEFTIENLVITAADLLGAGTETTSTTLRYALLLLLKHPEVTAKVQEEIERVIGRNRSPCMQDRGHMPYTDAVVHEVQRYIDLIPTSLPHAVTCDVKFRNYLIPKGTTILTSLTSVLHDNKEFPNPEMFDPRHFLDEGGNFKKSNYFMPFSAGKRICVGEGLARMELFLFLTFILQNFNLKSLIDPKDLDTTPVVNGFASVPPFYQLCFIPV

NCI-H1975 [13] = assay: Induction of apoptosis in human NCI-H1975 cells assessed as increase in cleaved caspase-8 expression at 0.05 to 1 uM after 24 hrs by Western blot analysis; type: functional, cell-based
Mus musculus [14] = assay: Toxicity in NOD-scid IL2Rgamma null mouse xenografted with human NCI-H1975 cells assessed as induction of abnormal behaviours at 25 to 50 mg/kg, ip measured after 21 days; type: organism-based; conditions: in vivo, 504 h
NCI-H1975 [15] = assay: Induction of apoptosis in human NCI-H1975 cells assessed as increase in Bax expression levels at 0.05 to 1 uM after 24 by Western blot analysis; type: functional, cell-based
CYP3A = CYP3A (Homo sapiens, UniProt P08684+P20815+P24462+Q9HB55); assay: Inhibition of CYP3A in human pooled human liver microsomes using midazolam as substrate assessed as midazolam 1'-hydroxylation preincubated for 5 mins followed by NADPH addition measured after 15 mins by LC-MS/MS analysis; type: ADME; conditions: probe midazolam
[16] = molecular target: T1, Heat shock protein HSP90 (Homo sapiens); assay: Inhibition of HSP90 in human NCI-H1975 cells assessed as induction of HSP70 expression at 0.05 to 1 uM after 24 hrs by Western blot analysis; type: cell-based
[17] = molecular target: T1, Heat shock protein HSP90 (Homo sapiens); assay: Inhibition of HSP90 in human NCI-H1975 cells assessed as decrease in Her2 protein expression at 0.05 to 1 uM after 24 hrs by Western blot analysis; type: cell-based
Mus musculus [18] = assay: as §1, with “EGFR” for “Met”, “immunoblot” for “haematoxylin and eosin staining-based immunohistochemical”; type: functional, organism-based
[19] = molecular target: T2, Heat shock protein HSP 90-alpha; assay: Inhibition of FITC-geldanamycin binding to N-terminal domain of recombinant full-length HSP90alpha (unknown origin) after 16 hrs by fluorescence polarization assay
NCI-H1975 [20] = assay: Induction of apoptosis in human NCI-H1975 cells assessed as increase in cleaved caspase-3 expression at 0.05 to 1 uM after 24 hrs by Western blot analysis; type: functional, cell-based
[21] = molecular target: T1, Heat shock protein HSP90 (Homo sapiens); assay: Inhibition of HSP90 in human NCI-H1975 cells assessed as induction of HSP90 expression at 0.05 to 1 uM after 24 hrs by Western blot analysis; type: cell-based
NCI-H1975 [22] = assay: Antiproliferative activity against human NCI-H1975 cells after 72 hrs by Cell Titer 96 Aqueous One Solution cell proliferation assay; type: functional; conditions: NCI-H1975, 72 h
Cytochrome P450 1A2 = molecular target: T3, Cytochrome P450 1A2 (Homo sapiens, UniProt P05177); assay: Inhibition of CYP1A2 in human pooled human liver microsomes using phenacetin as substrate assessed as […] preincubated for 5 mins followed by NADPH addition measured after 15 mins by LC-MS/MS analysis; type: ADME
T3 sequence (P05177 whole entry): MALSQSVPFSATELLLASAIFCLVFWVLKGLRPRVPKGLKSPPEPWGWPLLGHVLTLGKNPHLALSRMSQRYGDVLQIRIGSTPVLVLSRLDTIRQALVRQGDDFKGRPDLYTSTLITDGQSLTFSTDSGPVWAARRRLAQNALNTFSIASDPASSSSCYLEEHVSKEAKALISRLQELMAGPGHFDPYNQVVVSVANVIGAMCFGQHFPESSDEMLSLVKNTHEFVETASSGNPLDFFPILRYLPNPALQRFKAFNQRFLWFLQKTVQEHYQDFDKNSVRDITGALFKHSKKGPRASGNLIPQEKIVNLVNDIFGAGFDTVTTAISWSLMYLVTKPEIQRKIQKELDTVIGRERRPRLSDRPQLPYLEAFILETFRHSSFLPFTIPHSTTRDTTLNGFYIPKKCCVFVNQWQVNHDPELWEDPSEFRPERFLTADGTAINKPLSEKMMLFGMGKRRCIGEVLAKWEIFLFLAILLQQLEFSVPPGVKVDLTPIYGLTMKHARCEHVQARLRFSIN

Mus musculus [23] = assay: as §1, with “immunoblot” for “haematoxylin and eosin staining-based immunohistochemical”; type: functional, organism-based
NCI-H1975 [24] = assay: Induction of apoptosis in human NCI-H1975 cells assessed as increase in cleaved PARP expression at 0.05 to 1 uM after 24 hrs by Western blot analysis; type: functional, cell-based
Mus musculus [25] = assay: as §1, with “Akt” for “Met”, “immunoblot” for “haematoxylin and eosin staining-based immunohistochemical”; type: functional, organism-based
SK-BR-3 = assay: Antiproliferative activity against human SKBR3 cells after 72 hrs by Cell Titer 96 Aqueous One Solution cell proliferation assay; type: functional

CCCNC(=O)c1ccc(CN(C)C(=O)c2cc(C(C)C)c(O)cc2O)cc1
Activity (NCI-H1975 [1]): inactive | Activity (NCI-H1975 [2]): Non-Toxic | inhibition (Mus musculus [3]): Active | inhibition (Mus musculus [4]): Active | inhibition [5]: Active | Activity (Mus musculus [6]): Non-Toxic | IC50 (Cytochrome P450 2C9): 5.3 µM | inhibition [7]: Active | Kd [8]: 0.00308 µM | Activity (NCI-H1975 [9]): Active | inhibition [10]: Active | inhibition [11]: Active | inhibition (Mus musculus [12]): Active | IC50 (Cytochrome P450 2D6): 23 µM | IC50 (Cytochrome P450 2C19): 14.6 µM | Activity (NCI-H1975 [13]): Active | Activity (Mus musculus [14]): Non-Toxic | Activity (NCI-H1975 [15]): inactive | IC50 at 15 min (CYP3A): 25.9 µM | inhibition [16]: Active | inhibition [17]: Active | inhibition (Mus musculus [18]): Active | IC50 [19]: 0.0053 µM | Activity (NCI-H1975 [20]): Active | inhibition [21]: Active | GI50 (NCI-H1975 [22]): 0.42 µM | IC50 (Cytochrome P450 1A2): 34.1 µM | inhibition (Mus musculus [23]): Active | Activity (NCI-H1975 [24]): Active | inhibition (Mus musculus [25]): Active

Cc1ccccc1CN(C)C(=O)c1cc(Cl)c(O)cc1O
GI50 (SK-BR-3; SK-BR-3, 72 h): 4.2 µM | GI50 (NCI-H1975 [22]): 47.5 µM

CNC(=O)c1ccc(CN(C)C(=O)c2cc(C(C)C)c(O)cc2O)cc1
IC50 [19]: 0.0114 µM | GI50 (NCI-H1975 [22]): 0.86 µM

Cc1cccc(CN(C)C(=O)c2cc(Cl)c(O)cc2O)c1
GI50 (SK-BR-3; SK-BR-3, 72 h): 11.3 µM | GI50 (NCI-H1975 [22]): 49.3 µM

CCNC(=O)c1ccc(CN(C)C(=O)c2cc(Cl)c(O)cc2O)cc1
GI50 (NCI-H1975 [22]): 21.7 µM

COC1=C2C[C@@H](C)C[C@H](OC)[C@H](O)[C@@H](C)/C=C(\C)[C@H](OC(N)=O)[C@@H](OC)/C=C\C=C(/C)C(=O)NC(=CC1=O)C2=O [GELDANAMYCIN]
GI50 (SK-BR-3): inactive | GI50 (NCI-H1975 [22]): 0.56 µM

COc1cc(CN(C)C(=O)c2cc(Cl)c(O)cc2O)c(Br)c(OC)c1OC
GI50 (SK-BR-3; SK-BR-3, 72 h): 7.7 µM | GI50 (NCI-H1975 [22]): 34.3 µM

CN(Cc1ccc2c(c1)OCO2)C(=O)c1cc(Cl)c(O)cc1O
GI50 (SK-BR-3; SK-BR-3, 72 h): 41.8 µM | GI50 (NCI-H1975 [22]): 103 µM

COc1ccc(CN(C)C(=O)c2cc(Cl)c(O)cc2O)cc1
GI50 (SK-BR-3; SK-BR-3, 72 h): 7.2 µM | GI50 (NCI-H1975 [22]): 16.7 µM
